From Sander's compilation of Henry's law constants (doi:10.14233/ajchem.2013.13584)
Values joined by “and” are separate entries in the source; they are usually repeats but may differ in a detail not shown here. Equal entries are not always repeated.

Experiment: Henry solubility constant Hcp at 298.15 K (mol/(m3 Pa))
Conditions: reference: Zhang et al. (2013)

| Structure (SMILES) | Henry solubility constant Hcp |
| --- | --- |
| Cc1ccccc1C [1,2-dimethylbenzene] | 0.0027 and 0.0022 |
| O=[N+]([O-])c1ccccc1 [nitrobenzene] | 0.14 |
| Cc1ccccc1 [methylbenzene] | 0.0028 |
| c1ccccc1 [benzene] | 0.0027 and 0.0035 |
| CCc1ccccc1 [ethylbenzene] | 0.0019 and 0.0014 |
| ClC=C(Cl)Cl [trichloroethene] | 0.0016 and 0.0013 |
